Data taken from article PMC13237142, “Proteome-wide quantification of inositol pyrophosphate-protein interactions” (Nature Communications, 2026).
Each block holds one compound with its values, some of them ahead of it.

Legend:
[1] = in the presence of Mg^2+ ions; cited from earlier work
[2] = test system: XPR1; settings: compared with InsP6 and 5PP-InsP5; cited from earlier work
[3] = molecular target: T1, PMVK (Homo sapiens, UniProt Q15126); assay: Isothermal titration calorimetry with recombinant PMVK; format: binding; settings: ITC, 25 °C, 50 μM protein, 500 μM ligand, buffer pH 7.4 with 1 mM MgCl2; triplicate
T1 construct: 6xHis (N, cleaved yes); V5 (N, cleaved yes); made in house; host or cells: E. coli BL21 (DE3)
T1 sequence (Q15126 1-192): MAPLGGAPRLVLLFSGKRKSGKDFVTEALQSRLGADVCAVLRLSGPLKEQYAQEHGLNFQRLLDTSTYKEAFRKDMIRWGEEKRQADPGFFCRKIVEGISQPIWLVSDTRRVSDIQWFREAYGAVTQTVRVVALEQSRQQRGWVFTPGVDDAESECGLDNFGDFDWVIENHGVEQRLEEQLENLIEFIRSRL
Procedure: Protein stocks were subjected to buffer exchange using final buffer conditions: 25 mM HEPES, pH 7.4, 150 mM KCl, 1 mM MgCl2, 40 mM NaCl, 0.5 mM TCEP (ITC buffer). The exact protein concentration was determined by BCA assay and adjusted to 50 μM. […] ITC experiments were carried out at 25 °C in a MicroCal PEAQ-ITC calorimeter (Malvern Panalytical GmbH, Kassel, Germany), with ca. 50 μM protein in the cell and 500 μM ligand in the syringe. InsPs were titrated into the solution in nineteen 2 μL-steps. Spacing between injections was 150 s. The corresponding instrument software (MicroCal PEAQ-ITC Analysis) was used for baseline correction, peak integration, data fitting and determination of binding parameters. All experiments were carried out in triplicate.

[4] = molecular target: T2, PDAP1 (Homo sapiens, UniProt Q13442); assay: KDapp by affinity enrichment/TMT-MS; format: binding; settings: Mg^2+(cyto) HEK293T lysate; read-out: KD^app
T2 construct: endogenous in cells; host or cells: HEK293T cytosolic fraction
T2 sequence (Q13442 1-181): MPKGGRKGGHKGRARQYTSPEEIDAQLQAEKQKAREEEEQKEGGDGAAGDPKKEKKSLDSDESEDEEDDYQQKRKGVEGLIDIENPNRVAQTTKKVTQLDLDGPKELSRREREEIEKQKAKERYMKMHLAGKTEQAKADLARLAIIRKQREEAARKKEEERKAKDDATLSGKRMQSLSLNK
Procedure: (§1) Cells were lysed using two different lysis buffers (containing either 1 mM EDTA or containing 1 mM Mg^2+), and the lysates were separated into nuclear and cytosolic fractions to provide deeper proteome coverage (Supplementary Fig. 8). […] Following quick washing steps, the retained proteins were eluted with an excess of the corresponding free ligand. The samples were digested with trypsin, followed by 11-plex TMT isobaric labeling, subsequent sample pooling, and LC-MS/MS analysis. To ensure robustness of the datasets, the experiments were performed in biological triplicates, and only proteins fully quantified in at least two replicates were further analyzed. […] In addition, model validity was assessed by an F-test comparing the Hill-like fit to a null model, and only proteins with statistically significant fits (p ≤ 0.05) were considered. Furthermore, a cutoff of log2 fold-change ≥ 1 between the endpoints was applied (Supplementary Data 1).
(§2) Cells were washed twice with ice-cold 0.9 mM NaCl in H2O (10 mL), carefully scraped off, added to protein low-binding microcentrifuge tubes, and ice-cold PBS (1 mL) was added. The cells were pelleted for 2 min, 250 g at 4 °C, and the supernatant was removed. The pellet was washed twice with ice-cold PBS (1 mL), the supernatant was removed, and the pellet was kept on ice. […]

[5] = molecular target: T3, MMTAG2 (Homo sapiens, UniProt Q9BU76); assay: KDapp by affinity enrichment/TMT-MS; format: binding; settings: Mg^2+nucl HEK293T lysate; read-out: KD^app
T3 construct: endogenous in cells; host or cells: HEK293T nuclear fraction (Mg2+)
T3 sequence (Q9BU76 whole entry): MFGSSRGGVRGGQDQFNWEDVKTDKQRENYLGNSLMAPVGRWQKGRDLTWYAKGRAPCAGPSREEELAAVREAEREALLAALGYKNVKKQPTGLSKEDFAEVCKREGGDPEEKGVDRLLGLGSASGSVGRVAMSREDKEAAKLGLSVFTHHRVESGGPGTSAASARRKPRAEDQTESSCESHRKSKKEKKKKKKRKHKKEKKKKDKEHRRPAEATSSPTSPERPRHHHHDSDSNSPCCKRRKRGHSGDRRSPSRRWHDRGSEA
Procedure: as §1, §2

[6] = molecular target: T4, PPIP5K2 (Homo sapiens, UniProt O43314); assay: KDapp by affinity enrichment/TMT-MS; format: binding; settings: in the presence of Mg^2+ ions, cytosolic dataset
T4 construct: endogenous in cells; host or cells: HEK293T cytosolic fraction (Mg2+)
T4 sequence (O43314 1-1243): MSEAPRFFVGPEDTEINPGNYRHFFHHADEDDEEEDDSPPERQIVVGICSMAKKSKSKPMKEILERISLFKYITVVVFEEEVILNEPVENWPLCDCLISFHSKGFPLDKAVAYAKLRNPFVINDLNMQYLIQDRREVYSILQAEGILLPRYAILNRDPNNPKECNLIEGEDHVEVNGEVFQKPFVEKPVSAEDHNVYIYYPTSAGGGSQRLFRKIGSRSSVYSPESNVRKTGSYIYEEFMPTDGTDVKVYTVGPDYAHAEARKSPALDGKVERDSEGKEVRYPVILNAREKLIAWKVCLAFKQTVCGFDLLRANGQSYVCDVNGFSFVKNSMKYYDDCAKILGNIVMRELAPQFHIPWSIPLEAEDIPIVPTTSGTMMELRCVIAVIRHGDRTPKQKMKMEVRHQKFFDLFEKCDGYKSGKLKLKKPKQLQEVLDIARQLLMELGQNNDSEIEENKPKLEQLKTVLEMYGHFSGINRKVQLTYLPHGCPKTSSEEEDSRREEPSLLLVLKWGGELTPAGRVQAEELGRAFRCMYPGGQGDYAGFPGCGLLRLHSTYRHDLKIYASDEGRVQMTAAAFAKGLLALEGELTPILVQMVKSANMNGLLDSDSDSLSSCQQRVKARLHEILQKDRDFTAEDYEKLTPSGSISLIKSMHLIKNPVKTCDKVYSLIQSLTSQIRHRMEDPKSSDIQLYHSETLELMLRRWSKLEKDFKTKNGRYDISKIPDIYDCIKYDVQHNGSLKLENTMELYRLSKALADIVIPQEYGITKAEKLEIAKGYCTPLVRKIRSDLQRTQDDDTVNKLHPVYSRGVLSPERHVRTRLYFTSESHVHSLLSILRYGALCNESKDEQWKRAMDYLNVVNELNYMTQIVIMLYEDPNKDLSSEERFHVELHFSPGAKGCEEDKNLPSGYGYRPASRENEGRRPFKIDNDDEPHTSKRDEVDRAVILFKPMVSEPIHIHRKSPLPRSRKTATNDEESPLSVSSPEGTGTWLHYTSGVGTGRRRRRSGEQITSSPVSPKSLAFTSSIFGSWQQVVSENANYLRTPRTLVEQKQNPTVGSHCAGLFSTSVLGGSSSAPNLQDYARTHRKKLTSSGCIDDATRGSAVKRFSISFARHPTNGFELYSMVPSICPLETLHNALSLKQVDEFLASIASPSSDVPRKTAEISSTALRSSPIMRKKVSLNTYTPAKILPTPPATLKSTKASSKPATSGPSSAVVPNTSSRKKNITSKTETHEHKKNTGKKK
Procedure: as §1, §2

[7] = molecular target: T5, POLR2I (Homo sapiens, UniProt P36954); assay: KDapp by affinity enrichment/TMT-MS; settings: binding curve, Supplementary Fig. 9
T5 construct: endogenous in cells; host or cells: HEK293T lysate fraction

[8] = test system: proteins of HEK293T cell lysates (cytosolic/nuclear, EDTA/Mg2+); assay: Proteome-wide KDapp, all four lysate preparations together; format: binding, human; settings: Mg^2+ ions present; read-out: KD^app values of the top 50 proteins

SMILES: O=P(O)(O)O[C@@H]1[C@@H](OP(=O)(O)O)[C@H](OP(=O)(O)OP(=O)(O)O)[C@@H](OP(=O)(O)O)[C@H](OP(=O)(O)OP(=O)(O)O)[C@@H]1OP(=O)(O)O [1,5(PP)2-InsP4, bis-1,5-diphosphoinositol tetrakisphosphate]
fraction adopting the flipped conformation [1]: ~30%
in vitro binding affinity to XPR1 [2]: highest

Kd [3]: 9500 ± 1000 nM
SMILES: O=P(O)(O)O[C@H]1[C@@H](OP(=O)(O)O)[C@H](OP(=O)(O)O)[C@@H](OP(=O)(O)OP(=O)(O)O)[C@H](OP(=O)(O)O)[C@H]1OP(=O)(O)O [5PP-InsP5, 5-diphosphoinositol pentakisphosphate]

Kd [3]: 4000 ± 300 nM
SMILES: O=P(O)(O)O[C@H]1[C@H](OP(=O)(O)O)[C@@H](OP(=O)(O)O)[C@H](OP(=O)(O)O)[C@@H](OP(=O)(O)O)[C@H]1OP(=O)(O)O [InsP6, inositol hexakisphosphate]

Kd [4]: 600 nM
Kd [5]: 1900 nM
binding to PPIP5K2 (binding curves) [6]: tight binding
binding to POLR2I [7]: strong binding
SMILES: O=C(CCCC[C@@H]1SC[C@@H]2NC(=O)N[C@@H]21)NCCOCCOCCOCCOCCOP(=O)(O)O[C@@H]1[C@@H](OP(=O)(O)O)[C@H](OP(=O)(O)CP(=O)(O)O)[C@@H](OP(=O)(O)O)[C@H](OP(=O)(O)CP(=O)(O)O)[C@@H]1OP(=O)(O)O [b-1,5(PCP)2-InsP4]
Kd [8]: < 1000 nM
